Values of other authors in patent US20260285919A1, “RECOMBINANT PEPTIDES AND COMPOSITIONS THEREOF FOR PAIN MANAGEMENT” (UNIVERSITY OF ROCHESTER, priority 2023, published 2026).

How the values were obtained:
[1] = tested on: mice; details: for pain responses in injected paws: injected into the paws of mice
[2] = tested on: human ASIC1b; details: human ASIC1b protein, as opposed to rodent ASIC1b

Substance: PcTx1 (EDCIPKWKGCVNRHGDCCEGLECWKRRRSFEVCVPKTPKT; UniProt P60514 1-40, looked up)
- pain responses in injected paws [1]: this effect is not seen

Substance: mambalgin
- effect on the activity of human ASIC1b [2]: increases the activity of human ASIC1b
- analgesic effect in mice where ASIC1a is genetically deleted ([1]; ASIC1a genetically deleted mice, ASIC1b present): still works
- pain responses in injected paws [1]: much less sensitive
